Source: article PMC8596843, “Platinum Cyclooctadiene Complexes with Activity against Gram‐positive Bacteria” (Chemmedchem, 2021)
Converted amounts (≈) assume the structure as drawn. Where two headings read alike, the source gives them in different places.

Legend:
[1] = test system: Staphylococcus aureus ATCC 43300 (MRSA); experiment: microbe, parasite or virus in culture; type: cell-based; conditions: Staphylococcus aureus
Description: All compounds submitted to CO‐ADD are initially screened against five bacterial strains (Staphylococcus aureus (MRSA), E. coli, Klebsiella pneumoniae, Pseudomonas aeruginosa, Acinetobacter baumannii) and two fungal strains (Candida albicans, Cryptococcus neoformans) at a single concentration (32 μg/mL or 20 μM) performed as a high‐throughput primary screening.[[11], [17a]] Any compounds that show significant growth inhibition against any of the tested strains at this step are then evaluated in a dose‐response assay against these same strains. […]
(§1) Smiles: C1C=CCCC(=CC1)C1=CCCC=CCC1.C[Pt]C.C[Pt]C […]
(§2) ATCC strains were sourced from the American Type Culture Collection and NRS strains from NARSA (Network on Antimicrobial Resistance in Staphylococcus aureus) via BEI Resources (www.beiresources.org), with clinical MSSA and MRSA isolates from Prof Graeme Nimmo, Queensland […]
(§3) Health Central Pathology. […]
(§4) Antibacterial minimum inhibitory concentration (MIC) assay
(§5) Compound Assay Plate Preparation: Compounds were dissolved in DMSO at 10mM (CO-ADD screening) or 4 mM (follow up screening) and were plated in a 2-fold dose response from 20 to 0.156 µM or 200 to 0.006 µM respectively, with a maximum of 0.5% or 1% DMSO, final in the assay […]
(§6) plated in a 2-fold dose response from 200 to 0.006 µM, with a maximum of 1 % DMSO, final in the assay concentration. (in-house screening)
(§7) For all the bacterial assays, each strain was cultured in Cation-adjusted Mueller Hinton broth (CAMHB; Bacto Laboratories 212322) at 37 °C overnight. A sample of each culture was then diluted 40-fold in fresh CAMHB and incubated at 37 °C for 1.5–3 h. The resultant mid-log phase cultures were diluted with CAMHB (CFU mL−1 measured by OD600), then added to each well of the compound-containing plates (384-well non-binding surface (NBS) plates; Corning CLS3640), giving a cell density of 5 × 10^5 CFU mL−1 and a total volume of 50 μL. Plates were covered and incubated at 37 °C for 18 h without shaking. Inhibition of bacterial growth was determined measuring absorbance at 600 nm (OD600), using media only as negative control and bacteria without inhibitors as positive control. MIC values were determined as the lowest concentration at which the growth was inhibited at ≥80%. Colistin sulfate (Sigma C4461) and vancomycin HCl (Sigma 861987) were used as internal controls on each plate for Gram-negative and Gram-positive bacteria, respectively. […]

[2] = test system: B. subtilis ATCC 6051 type strain; experiment: MIC in the presence of human serum (serum reversal); type: cell-based, Bacillus subtilis; conditions: Bacillus subtilis, ATCC6051, read-out: MIC in the presence of human serum
Text: (§8) To obtain some initial insight into the apparent disparity between in vitro and in vivo results, we repeated the MIC experiments against four selected Gram‐positive strains in the presence of 10 % or 50 % human serum (Table S3). Pt1 and Pt2 maintained some antibacterial activity against B. subtilis in the presence of 10 % serum, but a complete loss of activity was observed against MRSA and GISA (50 % serum), and VRE (10 % serum). […] Systemic administration is therefore unlikely to be a suitable administration route for this class of compounds unless an alternative formulation that can prevent serum binding (e. g. by lipid or nanoparticle encapsulation) can be found. […] Further in vivo studies should therefore focus on more suitable disease models. […]
as §4
(§9) concentration. (in-house screening)
(§10) Bacto Laboratories 212322) at 37 °C overnight.
(§11) The resultant mid-log phase cultures were diluted
(§12) Gram-negative and Gram-positive bacteria, respectively.
(§13) final concentration range of 0.8 – 100 µM.
(§14) inhibitors as positive control. […]

[3] = test system: Staphylococcus aureus VRS 1, VRSA (VanA); experiment: Antibacterial MIC assay, Gram-positive panel; type: cell-based; conditions: Staphylococcus aureus, VRSA
Text: (§15) Bis(dimethyl-η4)-((1Z,1'E,5Z,5'E)-(1,1'-bi(cyclooctadiene))diplatinum(II) (Pt14) Smiles: C1C=CCCC(=CC1)C1=CCCC=CCC1.C[Pt]C.C[Pt]C
(§16) InChIKey: PHIWIZAHOBWKFJ-HPCBIOCFSA-N
(§17) Link to selected data that was repeated to approve the identity of the compounds: https://dx.doi.org/10.14272/PHIWIZAHOBWKFJ-HPCBIOCFSA-N.1
as §2, §3, §4, §5, §6, §7

[4] = test system: Staphylococcus aureus ATCC 25923, MSSA; experiment: Antibacterial MIC assay, Gram-positive panel; type: cell-based; conditions: Staphylococcus aureus
Text: as §15, §16, §17, §2, §3, §4, §5, §6, §7

[5] = test system: E. faecium ATCC 51559 MDR, VRE; experiment: MIC in the presence of human serum (serum reversal); type: cell-based, Enterococcus faecium; conditions: Enterococcus faecium, read-out: MIC in the presence of human serum
Text: as §8, §4, §9, §10, §11, §12, §13, §14

S. aureus NRS 17 GISA = experiment: as above; type: cell-based, Staphylococcus aureus; conditions: Staphylococcus aureus, NRS17, read-out: MIC in the presence of human serum
Text: as §8, §4, §9, §10, §11, §12, §13, §14

[6] = test system: S. aureus ATCC 43300 MRSA; experiment: as above; type: cell-based, Staphylococcus aureus; conditions: Staphylococcus aureus, read-out: MIC in the presence of human serum
Text: as §8, §4, §9, §10, §11, §12, §13, §14

[7] = test system: Enterococcus faecalis ATCC 29212, control strain; experiment: Antibacterial MIC assay, Gram-positive panel; type: cell-based; conditions: Enterococcus faecalis
Description: as §1, §2, §3, §4, §5, §6, §7

[8] = test system: Enterococcus faecium ATCC 51559, MDR, VRE (VanA); experiment: Antibacterial MIC assay, Gram-positive panel; type: cell-based; conditions: Enterococcus faecium
Description: as §1, §2, §3, §4, §5, §6, §7

[9] = test system: Staphylococcus epidermidis NRS 60, VISE; experiment: Antibacterial MIC assay, Gram-positive panel; type: cell-based; conditions: Staphylococcus epidermidis
Description: as §1, §2, §3, §4, §5, §6, §7

[10] = test system: Bacillus subtilis ATCC 6051, type strain; experiment: Antibacterial MIC assay, Gram-positive panel; type: cell-based; conditions: Bacillus subtilis
Description: as §1, §2, §3, §4, §5, §6, §7

[11] = test system: Enterococcus faecium Clinical Isolate, VRE (VanA); experiment: Antibacterial MIC assay, Gram-positive panel; type: cell-based; conditions: Enterococcus faecium, VRE
Description: as §1, §2, §3, §4, §5, §6, §7

[12] = test system: Enterococcus faecalis Clinical Isolate, VRE (VanB); experiment: Antibacterial MIC assay, Gram-positive panel; type: cell-based; conditions: Enterococcus faecalis, VRE
Description: as §1, §2, §3, §4, §5, §6, §7

[13] = test system: Enterococcus faecium ATCC 35667, type strain; experiment: Antibacterial MIC assay, Gram-positive panel; type: cell-based; conditions: Enterococcus faecium
Description: as §1, §2, §3, §4, §5, §6, §7

[14] = test system: Staphylococcus epidermidis ATCC 14990, type strain; experiment: Antibacterial MIC assay, Gram-positive panel; type: cell-based; conditions: Staphylococcus epidermidis
Description: as §1, §2, §3, §4, §5, §6, §7

[15] = test system: Staphylococcus aureus NRS 17, GISA; experiment: Antibacterial MIC assay, Gram-positive panel; type: cell-based; conditions: Staphylococcus aureus
Description: as §1, §2, §3, §4, §5, §6, §7

`CN[C@H](CC(C)C)C(=O)N[C@H]1C(=O)N[C@@H](CC(N)=O)C(=O)N[C@H]2C(=O)N[C@H]3C(=O)N[C@H](C(=O)N[C@H](C(=O)O)c4cc(O)cc(O)c4-c4cc3ccc4O)[C@H](O)c3ccc(c(Cl)c3)Oc3cc2cc(c3O[C@@H]2O[C@H](CO)[C@@H](O)[C@H](O)[C@H]2O[C@H]2C[C@](C)(N)[C@H](O)[C@H](C)O2)Oc2ccc(cc2Cl)[C@H]1O` [Vancomycin, reference compound] showed an MIC ([1]; Table 2 panel, n=2) of 0.35 to 0.69 µg/mL (≈ 0.242 to 0.476 µM), an MIC ([1]; Table S1, vancomycin control) of 0.5 to 1 µg/mL (≈ 0.345 to 0.69 µM) and an MIC ([1]; read-out: MIC Sa, CO‐ADD screening, control antibiotic) of 1 µg/mL (≈ 0.69 µM). It also gave an MIC [2] of 0.5 µg/mL, an MIC ([3]; Table 2 panel, n=4) of over 44.2 µg/mL and an MIC ([3]; Table S1, vancomycin control) of over 64 µg/mL. It also gave an MIC ([4]; Table 2 panel, n=4) of 0.69 µg/mL (≈ 0.476 µM), an MIC ([4]; Table S1, vancomycin control) of 1 µg/mL (≈ 0.69 µM) and an MIC [5] of over 64 µg/mL. The MIC (S. aureus NRS 17 GISA) was 8 µg/mL, the MIC [6] was 0.5 to 1 µg/mL and the MIC ([7]; ATCC29212, Table 2 panel, n=4) was 1.38 to 2.76 µg/mL (≈ 0.952 to 1.9 µM). It also gave an MIC ([7]; ATCC29212, Table S1, vancomycin control) of 2 to 4 µg/mL (≈ 1.38 to 2.76 µM), an MIC ([8]; Table 2 panel, n=2) of over 44.2 µg/mL and an MIC ([8]; Table S1, vancomycin control) of over 64 µg/mL. For the same compound, the MIC ([9]; NRS60, Table 2 panel, n=4) was 2.76 µg/mL (≈ 1.9 µM), the MIC ([9]; NRS60, Table S1, vancomycin control) was 4 µg/mL (≈ 2.76 µM) and the MIC ([10]; ATCC6051, Table 2 panel, n=2) was 0.35 µg/mL (≈ 0.242 µM). For the same compound, the MIC ([10]; ATCC6051, Table S1, vancomycin control) was 0.5 µg/mL (≈ 0.345 µM), the MIC ([11]; Table 2 panel, n=4) was over 44.2 µg/mL and the MIC ([11]; Table S1, vancomycin control) was over 64 µg/mL. The MIC ([12]; Table 2 panel, n=4) was over 44.2 µg/mL, the MIC ([12]; Table S1, vancomycin control) was 64 µg/mL (≈ 44.2 µM) and the MIC ([13]; ATCC35667, Table 2 panel, n=4) was 0.35 µg/mL (≈ 0.242 µM). It also gave an MIC ([13]; ATCC35667, Table S1, vancomycin control) of 0.5 µg/mL (≈ 0.345 µM), an MIC ([14]; ATCC14990, Table 2 panel, n=4) of 0.69 to 1.38 µg/mL (≈ 0.476 to 0.952 µM) and an MIC ([14]; ATCC14990, Table S1, vancomycin control) of 1 to 2 µg/mL (≈ 0.69 to 1.38 µM). It also gave an MIC ([15]; NRS17, Table 2 panel, n=2) of 5.52 µg/mL (≈ 3.81 µM) and an MIC ([15]; NRS17, Table S1, vancomycin control) of 8 µg/mL (≈ 5.52 µM).
